Results published in patent US7332476B2, “Pyridyl substituted ketolide antibiotics” (Novartis AG, priority 2003, dated 2008).
Values after ≈ are worked out from the molar mass of the structure shown.

Tests used:
[1] = tested on: Streptococcus pneumoniae Stpn_49619; assay: MIC, broth microdilution (NCCLS); type: cell-based; design: MIC, strain ID M: unit not given beside the values; settings: for MIC: Table 10, Strain ID M (Table 8): Streptococcus pneumoniae Stpn_49619
In short: (§1)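 Broth microdilution per NCCLS in cation-adjusted Mueller-Hinton broth, with 2-5% lysed horse blood added for S. pneumoniae. Inoculum 3×10^5–7×10^5 CFU/ml, 2-fold drug dilutions, 18-24 h at 35° C; S. pneumoniae under 5-10% CO2, others ambient air. MIC = lowest concentration preventing visible growth.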

[2] = tested on: Streptococcus pneumoniae Stpn_297-749; assay: MIC, broth microdilution (NCCLS); type: cell-based; design: MIC, strain ID N: unit not given here; settings: for MIC: Table 10, Strain ID N (Table 8): Streptococcus pneumoniae Stpn_297-749
In short: as §1

[3] = tested on: S. pneumoniae Stpn_Erm 6849; assay: MIC, broth microdilution (NCCLS); type: cell-based, Streptococcus pneumoniae; settings: strain ID P; broth microdilution; in µg/mL (unit assumed)
In short: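 Lowest drug concentration giving no visible growth after 18-24 hours at 35° C. under 5-10% CO2 was taken as MIC. Twofold serial dilutions in CAMHB plus 2-5% lysed horse blood, final inoculum 3×10^5–7×10^5 CFU/ml, per NCCLS microdilution.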

[4] = tested on: Haemophilus influenzae Hain_49247; assay: MIC, broth microdilution (NCCLS); type: cell-based; settings: unit assumed; for MIC: Table 10, Strain ID H (Table 8): Haemophilus influenzae Hain_49247
[5] = tested on: Streptococcus pneumoniae Stpn_Mef S 3427; assay: MIC, broth microdilution (NCCLS); type: cell-based; settings: Table 10, Strain ID Q (Table 8): Streptococcus pneumoniae Stpn_Mef S 3427; in µg/mL (unit assumed)
In short: as §1

[6] = tested on: Staphylococcus epidermidis Step_f50654; assay: MIC, broth microdilution (NCCLS); type: cell-based; settings: in µg/mL (unit assumed); for MIC: Table 10, Strain ID D (Table 8): Staphylococcus epidermidis Step_f50654
In short: as §1

[7] = In vivo pharmacokinetic study in rats, plasma (IV and PO); design: species or system Sprague-Dawley rats; settings: rat; for F, PO: PO = 15 mg/kg; for half-life / AUC / clearance / Vd: male, Sprague-Dawley; for half-life: 5 mg/kg, read-out: t1/2, IV Plasma (converted); for clearance / Vd: intravenous; for Vd: read-out: Vss
Description: Animal Models. A total of 54 male Sprague-Dawley rats, weighing 200 grams in average, were evaluated for pharmacokinetic studies of representative pyridyl substituted ketolides. Rats were under overnight food restriction and received water ad libitum. Rats were acclimated for approximately 5 days before antibiotic administration.
Antibiotic Administration. Rats were given bolus administration through (IV) and oral (PO) routes. Representative pyridyl substituted ketolides and telithromycin, for comparison, were diluted in 0.85% saline to a concentration of 15.0 mg/ml, and the resulting pH was adjusted using 1N acetic acid until the compound was in solution. Approximately 200 microliters of the compound solution was administered to the rats. The target dose for IV and PO administration was 5 mg/kg and 15 mg/kg, respectively.
Sample Collection. Plasma and whole lung samples were collected from the rats. Plasma samples were obtained from blood samples by centrifugation at 3000 RPM for 10 min. Heparin was added in the plasma as an anticoagulant. Whole lung samples were homogenized in deionized water. Samples were stored at −80° C. A total of 9 time points were collected in triplicate at 0.083, 0.25, 0.5, 1, 2, 4, 6, 8, and 24 hrs. Ketolide concentrations in plasma and lung were determined by well-established non-GLP LC-MS-MS methods. PK parameters were estimated from the raw bioanalytical data using WinNolin software (Version 4.0, Pharsight Corporation, CA). […] All representative compounds were compared to telithromycin.

[8] = tested on: Streptococcus pyogenes Stpy_8668; assay: MIC, broth microdilution (NCCLS); type: cell-based; design: MIC, strain ID G: unit not given beside the values; settings: for MIC: Table 10, Strain ID G (Table 8): Streptococcus pyogenes Stpy_8668
In short: as §1

[9] = plasma, IV, dose IV = 5 mg/kg (Compound XIV: IV = 15)

Compound | MIC [1] | MIC, strain ID M ([1]; strain ID M, broth microdilution) | MIC [2] | MIC, strain ID N ([2]; strain ID N, broth microdilution) | MIC, strain ID P [3] | MIC [4] | MIC, strain ID H ([4]; strain ID H, broth microdilution) | MIC [5] | MIC [6] | MIC, strain ID D ([6]; strain ID D, broth microdilution) | AUC, IV ([7]; IV, dose IV = 5 mg/kg (Compound XIV: IV = 15)) | t1/2, IV Plasma ([7]; IV, plasma) | F, PO [7] | MIC [8] | MIC, strain ID G ([8]; strain ID G, broth microdilution) | half-life ([7]; IV, plasma) | AUC [7, 9] | clearance ([7]; plasma) | Vd ([7]; plasma)
CC[C@H]1OC(=O)[C@H](C)C(=O)[C@H](C)[C@@H](O[C@@H]2O[C@H](C)C[C@H](N(C)C)[C@H]2O)[C@](C)(OC)C[C@@H](C)C(=O)[C@H](C)[C@H]2N(CCCCn3cnc(-c4cccnc4)c3)C(=O)O[C@]12C [Telithromycin, telithromycin, reference compound] | =0.05 | =0.05 | =0.05 | =0.05 | 0.2-0.78 | 3.13 µg/mL (≈ 3.85 µM) | 3.13 µg/mL (≈ 3.85 µM) | 0.1-0.2 | 0.1-0.2 | 0.1-0.2 | 2500 ng·h/mL | 1.0 h | 11% | =0.05 | =0.05 |  |  |  | 
CC[C@H]1OC(=O)[C@@](C)(F)C(=O)[C@H](C)[C@@H](OC2O[C@H](C)C[C@H](N(C)C)[C@H]2O)[C@@](C)(OC)C[C@@H](C)C(=O)[C@H](C)[C@H]2N(CCCCn3cnc(-c4ccc(C)nc4)c3)C(=O)O[C@]12CC (stereo partly drawn) [XIV] | =0.05 |  | =0.05 |  |  | 6.25 µg/mL (≈ 7.28 µM) |  | 0.1 | 0.4 |  |  |  | 43% | =0.05 |  | 2.3 h | 3300 ng·h/mL | 70 mL/min/kg | 13 L/kg
C=C[C@]12OC(=O)N(CCCCn3cnc(-c4ccc(OC)nc4)c3)[C@@H]1[C@@H](C)C(=O)[C@H](C)C[C@](C)(OC)[C@H](OC1O[C@H](C)C[C@H](N(C)C)[C@H]1O)[C@@H](C)C(=O)[C@@H](C)C(=O)O[C@@H]2CC (stereo partly drawn) [XVIII] | =0.05 |  | =0.05 |  |  | 6.25 µg/mL (≈ 7.32 µM) |  | 0.2 | 0.2 |  |  |  | 51% | =0.05 |  | 1.7 h | 2600 ng·h/mL | 91 mL/min/kg | 11 L/kg
C=C[C@]12OC(=O)N(CCCCn3cnc(-c4ccc(C)nc4)c3)[C@@H]1[C@@H](C)C(=O)[C@H](C)C[C@](C)(OC)[C@H](OC1O[C@H](C)C[C@H](N(C)C)[C@H]1O)[C@@H](C)C(=O)[C@@H](C)C(=O)O[C@@H]2CC (stereo partly drawn) [XVI] | =0.05 |  | =0.05 |  |  | 6.25 µg/mL (≈ 7.46 µM) |  | 0.1 | 0.2 |  |  |  | 35% | =0.05 |  | 1.6 h | 2100 ng·h/mL | 115 mL/min/kg | 14 L/kg
